# Earlier results, collected in paper PMC6838683, “Discovery of Human Signaling Systems: Pairing Peptides to G Protein-Coupled Receptors” (Cell, 2019).
# Where two headings read alike, the source gives them in different places. No end group written: not given here.
# Biological target: human GPCRs
# Set-up: method as in Guide to Pharmacology database
# Conditions: cited from earlier work
# Source text: Supplement mmc1.xlsx, sheet "HumanGPCRLigands" | column: pKi_value; pKd_value; pEC50_value; pIC50_value
# [1] = receptor CXCR1 (cxcr1_human, P25024), max reported value, ref Guide to Pharmacology database
# [2] = receptor CXCR2 (cxcr2_human, P25025), max reported value, ref Guide to Pharmacology database
# [3] = receptor CXCR3 (cxcr3_human, P49682), max reported value, ref Guide to Pharmacology database
# [4] = receptor vipr1_human (VIPR1, P32241), max reported value, ref Guide to Pharmacology database
# [5] = receptor gnrhr_human (GNRHR, P30968), max reported value, ref Guide to Pharmacology database
# [6] = receptor RXFP4 (rl3r2_human, Q8TDU9), max reported value, ref Guide to Pharmacology database
# [7] = receptor pacr_human (ADCYAP1R1, P41586), max reported value, ref Guide to Pharmacology database
# [8] = receptor vipr2_human (VIPR2, P41587), max reported value, ref Guide to Pharmacology database
# [9] = receptor pth2r_human (PTH2R, P49190), max reported value, ref Guide to Pharmacology database
# [10] = receptor bkrb1_human (BDKRB1, P46663), max reported value, ref Guide to Pharmacology database
# [11] = receptor OPRD1 (oprd_human, P41143), max reported value, ref Guide to Pharmacology database
# [12] = receptor OPRM1 (oprm_human, P35372), max reported value, ref Guide to Pharmacology database
# [13] = receptor apj_human (APLNR, P35414), max reported value, ref Guide to Pharmacology database
# [14] = receptor mrgx1_human (MRGPRX1), Class A orphans, max reported value, ref Guide to Pharmacology database
# [15] = receptor OPRK1 (oprk_human, P41145), max reported value, ref Guide to Pharmacology database
# [16] = receptor gipr_human (GIPR, P48546), max reported value, ref Guide to Pharmacology database
# [17] = receptor ghsr_human (GHSR, Q92847), max reported value, ref Guide to Pharmacology database
# [18] = receptor glp1r_human (GLP1R, P43220), max reported value, ref Guide to Pharmacology database
# [19] = receptor glp2r_human (GLP2R, O95838), max reported value, ref Guide to Pharmacology database
# [20] = receptor kissr_human (KISS1R, Q969F8), max reported value, ref Guide to Pharmacology database
# [21] = receptor nmur1_human (NMUR1, Q9HB89), max reported value, ref Guide to Pharmacology database
# [22] = receptor nmur2_human (NMUR2, Q9GZQ4), max reported value, ref Guide to Pharmacology database
substance,measurement,setting,value
CXCL1,pKi_value,[1],6.4
same,pKi_value,[2],9.7
CXCL2,pIC50_value,[2],9.1
CXCL3,pIC50_value,[2],9.2
CXCL5,pIC50_value,[2],9
CXCL6,pKi_value,[1],7
same,pKd_value,[2],7
CXCL8,pKd_value,[1],8.1
same,pKi_value,[1],9.5
same,pKi_value,[2],9.5
CXCL9,pKi_value,[3],8.3
CXCL10,pKi_value,[3],9.8
CXCL11,pKi_value,[3],10.5
CXCL13,pKd_value,"receptor CXCR5 (cxcr5_human, P32302), max reported value, ref Guide to Pharmacology database",7.3
GHRH,pKi_value,[4],6.2
GnRH I,pEC50_value,[5],10
same,pIC50_value,[5],8.6
same,pKd_value,[5],8.5
same,pKi_value,[5],8.4
"GnRH II (QHWSHGWYPG; ends and bridges not checked; UniProt O43555 24-33, looked up)",pIC50_value,[5],7.9
"INSL5 (Insulin-like peptide INSL5 B … KESVRLCGLEYIRTVIYICASSRW; Insulin-like peptide INSL5 A … QDLQTLCCTDGCSMTDLSALC; UniProt Q9Y5Q6 23-46; Q9Y5Q6 115-135, looked up)",pEC50_value,[6],8.9
same,pIC50_value,[6],8.9
same,pKi_value,[6],8.8
PACAP-38 [reference compound],pEC50_value,[7],10.3
same,pKi_value,[7],9
same,pEC50_value,[4],9.7
same,pKi_value,[4],8.2
same,pEC50_value,[8],9.3
PTHrP-(1-36),pIC50_value,"receptor pth1r_human (PTH1R, Q03431), max reported value, ref Guide to Pharmacology database",6.5
same,pIC50_value,[9],5.7
"PrRP-20 (TPDINPAWYASRGIRPVGRF; not fully specified; ends and bridges not checked; UniProt P81277 34-53, looked up)",pKi_value,"receptor PRLHR (prlhr_human, P49683), max reported value, ref Guide to Pharmacology database",9.6
"QRFP43 (QDEGSEATGFLPAAGEKTSGPLGNLAEELNGYSRKKGGFSFRF-NH2; UniProt P83859 91-133, looked up)",pEC50_value,"receptor QRFPR (qrfpr_human, Q96P65), max reported value, ref Guide to Pharmacology database",8.6
SRIF-14,pKi_value,"receptor SSTR1 (ssr1_human, P30872), max reported value, ref Guide to Pharmacology database",9.5
same,pKi_value,"receptor SSTR2 (ssr2_human, P30874), max reported value, ref Guide to Pharmacology database",10.5
same,pKi_value,"receptor SSTR3 (ssr3_human, P32745), max reported value, ref Guide to Pharmacology database",10
same,pKi_value,"receptor SSTR4 (ssr4_human, P31391), max reported value, ref Guide to Pharmacology database",9.3
same,pKi_value,"receptor SSTR5 (ssr5_human, P35346), max reported value, ref Guide to Pharmacology database",9.9
T-kinin (ISRPPGFSPFR),pKi_value,[10],5.2
TIP39,pIC50_value,[9],9.2
VIP,pEC50_value,[7],7.8
same,pIC50_value,[7],6
same,pKi_value,[7],6.3
same,pEC50_value,[4],7.9
same,pIC50_value,[4],8
same,pKi_value,[4],9
same,pEC50_value,[8],7.3
same,pIC50_value,[8],8.3
same,pKi_value,[8],8.7
[Leu]enkephalin,pKi_value,[11],8.7
same,pKi_value,[12],8.1
"amylin (KCNTATCATQRLANFLVHSSNNFGAILSSTNVGSNTY; not fully specified; cysteine pairing not given here; UniProt P10997 34-70, looked up)",pEC50_value,"receptor calcr_human (CALCR), Calcitonin receptors, Class B1 (Secretin), max reported value, ref Guide to Pharmacology database",9.2
angiotensin II (DRVYIHPF),pIC50_value,"receptor agtr1_human (AGTR1, P30556), max reported value, ref Guide to Pharmacology database",9.3
same,pKd_value,"receptor agtr2_human (AGTR2, P50052), max reported value, ref Guide to Pharmacology database",10.2
apelin-13,pIC50_value,,9.5
apelin-17,pIC50_value,[13],9
"apelin-36 (LVQPRGSRNGPGPWQGGRRKFRRQRPRLSHKGPMPF; not fully specified; UniProt Q9ULZ1 42-77, looked up)",pIC50_value,[13],8.6
bovine adrenal medulla peptide 8-22,pEC50_value,[14],7.8
same,pKd_value,[14],8
same,pKi_value,[14],7.7
calcitonin,pEC50_value,"receptor calcr_human (CALCR, P30988), Calcitonin receptors, max reported value, ref Guide to Pharmacology database",11.2
corticotrophin-releasing hormone,pKd_value,"receptor crfr1_human (CRHR1, P34998), max reported value, ref Guide to Pharmacology database",9
same,pKd_value,"receptor crfr2_human (CRHR2, Q13324), max reported value, ref Guide to Pharmacology database",7.4
dynorphin A,pKi_value,[11],7.4
same,pKi_value,[15],10.8
same,pKi_value,[12],8.1
dynorphin A-(1-8),pKi_value,[11],8.4
same,pKi_value,[15],9.9
same,pKi_value,[12],8.4
dynorphin A-(1-13),pKi_value,[11],7.8
same,pKi_value,[15],10.7
same,pKi_value,[12],8.3
"endothelin-2 (CSCSSWLDKECVYFCHLDIIW; ends and bridges not checked; cysteine pairing not given here; UniProt P20800 49-69, looked up)",pIC50_value,"receptor ednra_human (EDNRA, P25101), max reported value, ref Guide to Pharmacology database",8.2
endothelin-3,pKd_value,"receptor ednrb_human (EDNRB, P24530), max reported value, ref Guide to Pharmacology database",11.5
"galanin-like peptide (APAHRGRGGWTLNSAGYLLGPVLHLPQMGDQDGKRETALEILDLWKAIDGLPYSHPPQPS; not fully specified; UniProt Q9UBC7 25-84, looked up)",pIC50_value,"receptor galr1_human (GALR1, P47211), max reported value, ref Guide to Pharmacology database",7.1
same,pIC50_value,"receptor galr2_human (GALR2, O43603), max reported value, ref Guide to Pharmacology database",7.7
same,pIC50_value,"receptor galr3_human (GALR3, O60755), max reported value, ref Guide to Pharmacology database",8
gastric inhibitory polypeptide,pKd_value,[16],8.7
same,pKi_value,[16],9.1
"ghrelin (GSSFLSPEHQRVQQRKESKKPPAKLQPR; not fully specified; ends and bridges not checked; UniProt Q9UBU3 24-51, looked up)",pEC50_value,[17],7.5
same,pKd_value,[17],9.4
same,pKi_value,[17],8.1
glucagon,pKi_value,[18],7
same,pEC50_value,"receptor glr_human (GCGR, P47871), max reported value, ref Guide to Pharmacology database",9
glucagon-like peptide 1-(7-36) amide,pKi_value,[18],9.2
glucagon-like peptide 2,pIC50_value,[19],8.5
"glucagon-like peptide 2-(3-33) (DGSFSDEMNTILDNLAARDFINWLIQTKITD; Glucagon-like peptide 2; UniProt P01275 148-178, looked up, fragment)",pIC50_value,[19],7.4
humanin,pEC50_value,"receptor fpr3_human (FPR3, P25089), max reported value, ref Guide to Pharmacology database",8.9
kallidin,pKi_value,[10],8.9
same,pIC50_value,"receptor bkrb2_human (BDKRB2, P30411), max reported value, ref Guide to Pharmacology database",9.3
"kisspeptin-13 (LPNYNWNSFGLRF; not fully specified; ends and bridges not checked; UniProt Q15726 109-121, looked up)",pKi_value,[20],8.4
"kisspeptin-14 (DLPNYNWNSFGLRF; not fully specified; ends and bridges not checked; UniProt Q15726 108-121, looked up)",pKi_value,[20],8.8
"kisspeptin-54 (GTSLSPPPESSGSPQQPGLSAPHSRQIPAPQGAVLVQREKDLPNYNWNSFGLRF; ends and bridges not checked; UniProt Q15726 68-121, looked up)",pKi_value,[20],9.5
lysophosphatidylinositol,pEC50_value,"receptor GPR55 (gpr55_human, Q9Y2T6), max reported value, ref Guide to Pharmacology database",7.3
melanin-concentrating hormone,pKi_value,"receptor mchr1_human (MCHR1, Q99705), max reported value, ref Guide to Pharmacology database",10.5
same,pIC50_value,"receptor mchr2_human (MCHR2, Q969V1), max reported value, ref Guide to Pharmacology database",9.2
"neuromedin S-33 (ILQRGSGTAAVDFTKKDHTATWGRPFFLFRPRN; not fully specified; ends and bridges not checked; UniProt Q5H8A3 109-141, looked up)",pEC50_value,[21],10.2
same,pIC50_value,[21],10
same,pEC50_value,[22],10
same,pIC50_value,[22],9.2
neuromedin U-25 (FRVDEEFQSPFASQSRGYFLFRPRN-NH2),pEC50_value,[21],9.4
same,pKi_value,[21],9.5
same,pEC50_value,[22],9.4
same,pKi_value,[22],9.6
neuropeptide B-23 (WYKPAAGHSSYSVGRAAGLLSGL),pIC50_value,"receptor npbw2_human (NPBWR2, P48146), max reported value, ref Guide to Pharmacology database",8.4
